# Measured values taken from patent US6403650B1, “Treatment of pulmonary hypertension” (Knoll Pharmaceutical Company, priority 1999, dated 2002).
# Legend:
# [1] = molecular target: [3H]Noradenaline reuptake; test: in vitro [3H]noradrenaline reuptake inhibition in rat brain tissue; type: biochemical; conditions: means of ≧3 separate determinations
# [3H]Dopamine reuptake = in vitro [3H]dopamine reuptake inhibition in rat brain tissue; type: biochemical; conditions: means of ≧3 separate determinations
SMILES,Ki [1] [nM],Ki ([3H]Dopamine reuptake) [nM]
COc1ccc(C(CN(C)C)C2(O)CCCCC2)cc1 (stereo not shown) [Venlafaxine],196,2590
CC(NC(C)(C)C)C(=O)c1cccc(Cl)c1 (stereo not shown) [Bupropion],2590,409
